Reference: patent publication US20070167369A1, “Novel use of isolated polypeptide comprising four FAS-1 domains, EM1 domain and RGD motif” (KYUNGPOOK NATIONAL UNIVERSITY INDUSTRY-ACADEMIC COOPERATION …, priority 2004, published 2007)

System: caspase-3
Assay: Caspase-3 activity in HUVECs (Example 7-2)
Type: cell-based, human
Details: caspase-3-specific inhibitor added to samples
Experimental: With respect to the induction of endothelial cell apoptosis (active cell death) by the fas-1 domain, which had been confirmed in Example 7-1 above, the present inventors measured the activity of caspase-3, which is activated when apoptosis occurs, in the cells treated with the fas-1 domain.
HUVECs were spread onto a 100-mm plate (10 ml culture solution) with M199 medium containing 10% FBS, followed by incubation in a 37° C. incubator for 12 hours. After the incubation, the medium was removed from the plate, the cells were added with fresh medium containing 0.1% FBS and further incubated for 24 hours. The cell-containing medium was treated with 5 μM or 20 μM of the fas-1 domain (βig-h3 D-IV) prepared in Example 1. A control was treated with PBS buffer. At 12 hours and 24 hours after the treatment, the cells were harvested. The caspase-3 activity of the cells was measured with an EnzCheck Caspase-3 Assay Kit(#2) (Molecular Probe Co., Eugene, Oreg., USA). Moreover, to verify that measured values are attributed to caspase-3 activity, each of the samples was treated with DEVD-CHO (Molecular Probe Co., Eugene, Oreg., USA) as a caspase-3-specific inhibitor. The control was treated with DMSO.

inhibition of caspase-3 activities of test groups and control group: inhibited
Substance: DEVD-CHO [reference compound]
